Patent US9096591B2, “Tetracyclic compounds” (Medivation Technologies, Inc., priority 2007, dated 2015)

Key:
[1] = biological target: T1, human recombinant histamine H1 receptor (Homo sapiens, UniProt P35367); assay: Histamine H1 radioligand binding ([3H]Pyrilamine); settings: percent inhibition of specific binding; screened at 1 μM; read-out: Inhibition of ligand binding, Hist. H1
T1 construct: expressed in transfected cells; host or cells: CHO cells
Method in brief: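 Receptor expressed in CHO cells, assayed in 50 mM Tris-HCl pH 7.4 with 2 mM MgCl2, 100 mM NaCl, 250 mM sucrose. Compounds tested at 1 μM in 1% DMSO; non-specific binding set with 1 μM pyrilamine. Filter-bound radioactivity counted; values are percent inhibition of specific binding.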

[2] = biological target: T2, human recombinant adrenergic α1D receptor (Homo sapiens, UniProt P25100); assay: Adrenergic α1D radioligand binding ([3H]Prozosin); set-up: Inhibition of ligand binding, Adren. alpha1D: concentration or dose not given beside the values; settings: percent inhibition of specific binding
T2 construct: expressed in transfected cells; host or cells: HEK-293 cells
T2 sequence (P25100 1-572): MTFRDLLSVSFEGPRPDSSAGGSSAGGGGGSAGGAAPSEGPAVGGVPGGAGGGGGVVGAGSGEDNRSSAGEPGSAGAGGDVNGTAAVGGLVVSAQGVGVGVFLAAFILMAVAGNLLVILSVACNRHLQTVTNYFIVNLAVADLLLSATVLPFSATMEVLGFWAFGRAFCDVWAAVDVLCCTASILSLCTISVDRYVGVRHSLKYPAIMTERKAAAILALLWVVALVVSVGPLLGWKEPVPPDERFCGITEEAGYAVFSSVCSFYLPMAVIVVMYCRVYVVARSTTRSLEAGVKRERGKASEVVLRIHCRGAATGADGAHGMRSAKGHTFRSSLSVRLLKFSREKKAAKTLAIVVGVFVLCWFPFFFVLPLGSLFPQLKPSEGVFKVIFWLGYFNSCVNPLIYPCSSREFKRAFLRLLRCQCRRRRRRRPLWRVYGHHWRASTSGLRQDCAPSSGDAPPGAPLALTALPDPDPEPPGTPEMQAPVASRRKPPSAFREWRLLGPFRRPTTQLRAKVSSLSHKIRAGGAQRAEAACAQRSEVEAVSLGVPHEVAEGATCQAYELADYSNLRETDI
Experimental: Compounds of invention were incubated with 0.6 nM [^3H]Prozosin for 60 minutes at 25° C. Non-specific binding was estimated in the presence of 10 μM phentolamine. Receptor proteins were filtered and washed, the filters were then counted to determine [^3H]Prozosin specifically bound. […] Biochemical assay results are presented as the percent inhibition of specific binding in Table 6.

[3] = biological target: T3, human recombinant adrenergic α2A receptor (Homo sapiens, UniProt P08913); assay: Adrenergic α2A radioligand binding ([3H]MK-912); set-up: Inhibition of ligand binding, Adren. alpha2A: concentration or dose not given beside the values; settings: percent inhibition of specific binding
T3 construct: expressed in transfected cells; host or cells: insect Sf9 cells
T3 sequence (P08913 1-465): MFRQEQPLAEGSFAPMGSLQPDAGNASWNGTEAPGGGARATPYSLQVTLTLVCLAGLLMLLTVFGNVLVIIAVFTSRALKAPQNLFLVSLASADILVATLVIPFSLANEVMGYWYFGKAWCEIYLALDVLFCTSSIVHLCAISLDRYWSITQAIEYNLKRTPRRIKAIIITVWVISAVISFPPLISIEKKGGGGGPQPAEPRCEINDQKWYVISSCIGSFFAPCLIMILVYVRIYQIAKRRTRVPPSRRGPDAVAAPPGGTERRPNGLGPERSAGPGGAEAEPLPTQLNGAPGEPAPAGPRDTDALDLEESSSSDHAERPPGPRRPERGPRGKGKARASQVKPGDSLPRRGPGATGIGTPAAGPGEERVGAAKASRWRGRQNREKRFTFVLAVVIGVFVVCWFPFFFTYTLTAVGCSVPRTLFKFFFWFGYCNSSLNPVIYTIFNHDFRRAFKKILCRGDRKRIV
Method in brief: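 Membranes from Sf9 cells expressing the receptor were incubated with 1 nM [3H]MK-912 for 60 minutes at 25° C in 50 mM Tris-HCl pH 7.4, 12.5 mM MgCl2, 2 mM EDTA. 10 μM WB-4101 defined non-specific binding. Values are percent inhibition of specific bound radioactivity after filtration.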

[4] = biological target: T4, human recombinant serotonin (5-Hydroxytryptamine) 5-HT2A receptor (Homo sapiens, UniProt P28223); assay: Serotonin 5-HT2A radioligand binding ([3H]Ketanserin); settings: percent inhibition of specific binding
T4 construct: expressed in transfected cells; host or cells: CHO-K1 cells
T4 sequence (P28223 whole entry): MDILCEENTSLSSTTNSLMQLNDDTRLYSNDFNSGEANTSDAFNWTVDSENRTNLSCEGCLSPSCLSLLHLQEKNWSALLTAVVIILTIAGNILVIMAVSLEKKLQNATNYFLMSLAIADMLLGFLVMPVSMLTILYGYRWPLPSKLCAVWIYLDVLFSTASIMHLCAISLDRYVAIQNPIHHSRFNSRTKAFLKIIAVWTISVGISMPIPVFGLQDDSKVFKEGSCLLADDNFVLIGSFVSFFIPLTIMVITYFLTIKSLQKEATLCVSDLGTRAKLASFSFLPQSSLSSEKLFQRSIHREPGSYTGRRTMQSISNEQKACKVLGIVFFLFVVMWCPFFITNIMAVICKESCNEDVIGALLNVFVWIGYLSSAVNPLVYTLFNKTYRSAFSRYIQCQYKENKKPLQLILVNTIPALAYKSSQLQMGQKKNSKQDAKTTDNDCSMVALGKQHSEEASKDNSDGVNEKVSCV
Experimental: Compounds of the invention were incubated with 0.5 nM [^3H]Ketanserin for 60 minutes at 25° C. Non-specific binding was estimated in the presence of 1 μM Mianserin. Receptor proteins were filtered and washed, the filters were then counted to determine [^3H]Ketanserin specifically bound. […] Biochemical assay results are presented as the percent inhibition of specific binding in Table 6.

[5] = biological target: T5, human recombinant serotonin (5-Hydroxytryptamine) 5-HT6 receptor (Homo sapiens, UniProt P50406); assay: Serotonin 5-HT6 radioligand binding ([3H]LSD); set-up: Inhibition of ligand binding, Ser. 5-HT6: concentration or dose not given beside the values; settings: percent inhibition of specific binding
T5 construct: expressed in transfected cells; host or cells: human HeLa cells
T5 sequence (P50406 whole entry): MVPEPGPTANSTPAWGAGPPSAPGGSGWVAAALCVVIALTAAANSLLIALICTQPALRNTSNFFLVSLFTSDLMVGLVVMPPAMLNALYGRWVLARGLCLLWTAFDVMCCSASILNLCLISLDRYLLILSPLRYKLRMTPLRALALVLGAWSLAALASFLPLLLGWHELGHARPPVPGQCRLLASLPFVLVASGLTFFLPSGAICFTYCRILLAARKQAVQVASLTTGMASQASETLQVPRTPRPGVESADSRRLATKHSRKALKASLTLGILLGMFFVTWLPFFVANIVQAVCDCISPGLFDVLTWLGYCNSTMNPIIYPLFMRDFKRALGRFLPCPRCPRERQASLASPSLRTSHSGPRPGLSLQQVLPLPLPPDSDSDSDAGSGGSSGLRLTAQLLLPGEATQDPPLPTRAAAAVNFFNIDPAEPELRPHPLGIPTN
Excerpt: Receptor proteins were filtered and washed, the filters were then counted to determine [3H]LSD specifically bound. […] Biochemical assay results are presented as the percent inhibition of specific binding in Table 6.

T1 sequence (P35367 whole entry): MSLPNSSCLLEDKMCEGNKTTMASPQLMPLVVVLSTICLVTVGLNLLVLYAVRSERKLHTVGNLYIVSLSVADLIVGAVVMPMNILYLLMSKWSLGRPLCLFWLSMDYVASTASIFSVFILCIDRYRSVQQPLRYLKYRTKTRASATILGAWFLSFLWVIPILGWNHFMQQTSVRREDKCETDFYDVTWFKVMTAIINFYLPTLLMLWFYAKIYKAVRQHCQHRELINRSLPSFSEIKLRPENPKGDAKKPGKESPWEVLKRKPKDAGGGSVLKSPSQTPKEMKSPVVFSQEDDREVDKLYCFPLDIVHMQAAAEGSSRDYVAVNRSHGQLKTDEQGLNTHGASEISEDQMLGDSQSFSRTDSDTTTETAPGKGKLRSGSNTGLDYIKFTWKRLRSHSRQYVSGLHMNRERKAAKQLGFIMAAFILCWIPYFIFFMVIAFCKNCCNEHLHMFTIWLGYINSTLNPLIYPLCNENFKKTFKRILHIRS

Row | Structure (SMILES) | inhibition at 1 µM [1] [%] | Inhibition of ligand binding, Adren. alpha1D [2] [%] | Inhibition of ligand binding, Adren. alpha2A [3] [%] | Inhibition of ligand binding, Ser. 5-HT2A [4] [%] | Inhibition of ligand binding, Ser. 5-HT6 [5] [%]
1 | CN1CCc2c(c3cc(Cl)ccc3n2CCn2cccc2)C1 [Compound 349, 8-Chloro-2-methyl-5-(2-pyrrol-1-yl-ethyl)-2,3,4,5-tetrahydro-1H-pyrido[4,3-b]indole] | 111 | 100 | 96 | 97 | 101
2 | OC1CCC(N2CCc3c(c4cc(Cl)ccc4n3CCc3ccc(C(F)(F)F)nc3)C2)C1 (centres unmarked) [Compound 351, 3-(8-chloro-5-(2-(6-(trifluoromethyl)pyridin-3-yl)ethyl)-3,4-dihydro-1H-pyrido[4,3-b]indol-2(5H)-yl)cyclopentanol] | 74 | 61 | 8 | 1 | −4
3 | Cc1ccc2c(n1)c1c(n2CCc2ccc(C(F)(F)F)nc2)CCN(C)C1 [Compound 353, 9-aza-2,8-dimethyl-5-(2-(6-(trifluoromethyl)pyridin-3-yl)ethyl)-2,3,4,5-tetrahydro-1H-pyrido[4,3-b]indole] | 10 | 11 | 8 | −1 | 0
4 | CCc1ccc2c(c1)c1c(n2CCc2ccc(C)nc2)CCN(C)C1 [Compound 357, 8-Ethyl-2-methyl-5-[2-(6-methyl-pyridin-3-yl)-ethyl]-2,3,4,5-tetrahydro-1H-pyrido[4,3-b]indole] | 101 | 89 | 91 | 69 | 85
5 | CCc1ccc2c(c1)c1c(n2CCc2ccc(C(F)(F)F)nc2)CCN(C)C1 [Compound 358, 8-Ethyl-2-methyl-5-[2-(6-trifluoromethyl-pyridin-3-yl)-ethyl]-2,3,4,5-tetrahydro-1H-pyrido[4,3-b]indole] | 94 | 95 | 96 | 95 | 65
6 | CCc1ccc(CCn2c3c(c4cc(C)ccc42)CN(C)CC3)cn1 [Compound 359, 5-[2-(6-Ethyl-pyridin-3-yl)-ethyl]-2,8-dimethyl-2,3,4,5-tetrahydro-1H-pyrido[4,3-b]indole] | 99 | 95 | 77 | 96 | 95
7 | Cc1ccc2c(c1)c1c(n2CCc2ccc(C(C)C)nc2)CCN(C)C1 [Compound 360, 5-[2-(6-Isopropyl-pyridin-3-yl)-ethyl]-2,8-dimethyl-2,3,4,5-tetrahydro-1H-pyrido[4,3-b]indole] | 101 | 96 | 101 | 97 | 91
8 | Cc1ncc(CCn2c3c(c4cc(Cl)ccc42)CN(C)CC3)cn1 [Compound 361, 8-Chloro-2-methyl-5-[2-(2-methyl-pyrimidin-5-yl)-ethyl]-2,3,4,5-tetrahydro-1H-pyrido[4,3-b]indole] | 106 | 87 | 30 | 60 | 76
9 | CCc1ccc2c(c1)c1c(n2CCc2cnc(C)nc2)CCN(C)C1 [Compound 362, 8-Ethyl-2-methyl-5-[2-(2-methyl-pyrimidin-5-yl)-ethyl]-2,3,4,5-tetrahydro-1H-pyrido[4,3-b]indole] | 98 | 76 | 14 | 27 | 61
10 | Cc1cnc(CCn2c3c(c4cc(Cl)ccc42)CN(C)CC3)cn1 [Compound 363, 8-Chloro-2-methyl-5-[2-(5-methyl-pyrazin-2-yl)-ethyl]-2,3,4,5-tetrahydro-1H-pyrido[4,3-b]indole] | 95 | 73 | 59 | 75 | 83
11 | CCc1ccc2c(c1)c1c(n2CCc2cnc(C)cn2)CCN(C)C1 [Compound 364, 8-Ethyl-2-methyl-5-[2-(5-methyl-pyrazin-2-yl)-ethyl]-2,3,4,5-tetrahydro-1H-pyrido[4,3-b]indole] | 87 | 77 | 65 | 59 | 70
12 | Cc1cnc(CCn2c3c(c4cc(C(C)C)ccc42)CN(C)CC3)cn1 [Compound 369, 8-Isopropyl-2-methyl-5-[2-(5-methyl-pyrazin-2-yl)-ethyl]-2,3,4,5-tetrahydro-1H-pyrido[4,3-b]indole] | 39 | 51 | 25 | 10 | 23
13 | Cc1ncc(CCn2c3c(c4cc(C(C)C)ccc42)CN(C)CC3)cn1 [Compound 370, 8-Isopropyl-2-methyl-5-[2-(2-methyl-pyrimidin-5-yl)-ethyl]-2,3,4,5-tetrahydro-1H-pyrido[4,3-b]indole] | 85 | 71 | 35 | 15 | 64
